From ChEMBL document CHEMBL1127183, “Synthesis of 6-amino-5-oxo-7-phenyl-1,4-oxazepines as conformationally constrained gauche () dipeptide mimetics” (Bioorg Med Chem Lett, 1993) come the findings set out here.

For the assay, the target named is Angiotensin-converting enzyme (Homo sapiens, UniProt P12821). Put plainly: Binding affinity against Angiotensin I converting enzyme.
Chain of Angiotensin-converting enzyme (P12821 whole entry): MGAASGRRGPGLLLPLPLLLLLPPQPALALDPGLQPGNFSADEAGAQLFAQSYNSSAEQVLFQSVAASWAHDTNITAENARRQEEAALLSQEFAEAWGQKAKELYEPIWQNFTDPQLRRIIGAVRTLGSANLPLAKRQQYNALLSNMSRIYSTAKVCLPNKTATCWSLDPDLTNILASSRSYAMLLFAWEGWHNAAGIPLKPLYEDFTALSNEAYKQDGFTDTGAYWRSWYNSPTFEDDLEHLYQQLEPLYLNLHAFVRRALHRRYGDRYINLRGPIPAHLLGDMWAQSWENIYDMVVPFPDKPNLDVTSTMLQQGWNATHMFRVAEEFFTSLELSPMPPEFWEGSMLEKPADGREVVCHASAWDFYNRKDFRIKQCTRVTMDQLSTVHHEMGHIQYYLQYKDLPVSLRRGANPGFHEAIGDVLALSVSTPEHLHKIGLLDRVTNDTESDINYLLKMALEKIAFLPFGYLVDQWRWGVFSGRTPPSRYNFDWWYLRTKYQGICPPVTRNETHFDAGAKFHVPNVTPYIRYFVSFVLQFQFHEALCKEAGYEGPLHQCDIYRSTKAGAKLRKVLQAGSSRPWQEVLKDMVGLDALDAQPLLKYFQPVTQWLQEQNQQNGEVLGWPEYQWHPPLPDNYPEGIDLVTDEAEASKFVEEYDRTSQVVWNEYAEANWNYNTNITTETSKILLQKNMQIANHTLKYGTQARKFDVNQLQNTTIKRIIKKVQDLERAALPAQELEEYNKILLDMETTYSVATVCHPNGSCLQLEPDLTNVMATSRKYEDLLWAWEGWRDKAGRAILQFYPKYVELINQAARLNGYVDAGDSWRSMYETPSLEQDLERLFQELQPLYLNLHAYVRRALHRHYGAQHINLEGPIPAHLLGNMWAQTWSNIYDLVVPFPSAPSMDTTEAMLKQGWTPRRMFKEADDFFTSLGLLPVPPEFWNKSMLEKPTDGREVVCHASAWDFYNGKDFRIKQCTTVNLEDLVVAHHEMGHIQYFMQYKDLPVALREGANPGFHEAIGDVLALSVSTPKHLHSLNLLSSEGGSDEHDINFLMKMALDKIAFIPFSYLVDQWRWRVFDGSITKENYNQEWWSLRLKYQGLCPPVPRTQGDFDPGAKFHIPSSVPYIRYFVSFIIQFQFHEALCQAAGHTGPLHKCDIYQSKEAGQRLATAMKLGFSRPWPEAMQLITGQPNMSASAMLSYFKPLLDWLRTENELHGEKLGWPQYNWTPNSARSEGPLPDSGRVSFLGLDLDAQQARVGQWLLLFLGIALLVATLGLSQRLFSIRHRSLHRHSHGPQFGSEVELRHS

In the case of `CC(C)C[C@H](C(=O)O)N1CCO[C@@H](c2ccccc2)[C@H](NC(=O)[C@H](S)Cc2ccccc2)C1=O`, the inhibition constant Ki amounted to 50 µM.

The Ki is a measure of affinity in units of concentration, obtained from inhibition or displacement.
